Test results taken from ChEMBL document CHEMBL1201862, “PubChem BioAssay data set” (2004).
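The compound was tested at five concentrations on cells cultured in 96-well plates, with a 48-hour exposure period. At the GI50, growth is halved.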 Active and inactive are the calls of the source. Rule as the data show it: active = GI50 up to about 1.1 µM and inactive = higher.

Experiments:
Test in all cases: growth of human tumour cells (NCI), 48 h
ACHN = system: ACHN
CAKI-1 = system: CAKI-1
EKVX = system: EKVX
HT-29 = system: HT-29
K562 = system: K562
M14 = system: M14
NCI-H226 = system: NCI-H226
OVCAR-4 = system: OVCAR-4
SF-539 = system: SF-539
SK-MEL-2 = system: SK-MEL-2
SNB-19 = system: SNB-19
SR = system: SR
TK-10 = system: TK-10
UACC-62 = system: UACC-62
HOP-92 = system: HOP-92
IGROV-1 = system: IGROV-1
SW-620 = system: SW-620
SK-OV-3 = system: SK-OV-3

Measured: GI50

O=C1c2ccccc2C(=O)c2[nH]cnc21
inactive: ACHN 66.7 µM | CAKI-1 > 100 µM | EKVX 91.2 µM | HT-29 33.5 µM | K562 78.7 µM | M14 41.4 µM | NCI-H226 29.8 µM | OVCAR-4 76.6 µM | SF-539 61.2 µM | SK-MEL-2 > 100 µM | SNB-19 46.7 µM | SR 44 µM | TK-10 > 100 µM | UACC-62 31.9 µM

COc1ccc(/N=C(/[N-]n2c(=O)c(C)nn(C)c2=S)N(c2ccc(OC)cc2)c2n[n+]3c(=O)c(C)nn(C)c3s2)cc1
inactive: ACHN > 100 µM | EKVX > 100 µM | HOP-92 > 100 µM | HT-29 > 100 µM | IGROV-1 > 100 µM | K562 > 100 µM | M14 > 100 µM | NCI-H226 > 100 µM | OVCAR-4 > 100 µM | SF-539 > 100 µM | SNB-19 > 100 µM | SR > 100 µM | SW-620 > 100 µM | UACC-62 > 100 µM

CCCCCCCCCCCCCCCCOP(=O)(O)Oc1ccc(/C=C\c2ccc(OP(=O)(O)OCCCCCCCCCCCCCCCC)cc2)cc1
inactive: ACHN 40.6 µM | CAKI-1 > 100 µM | EKVX > 100 µM | HOP-92 5.02 µM | HT-29 62.7 µM | IGROV-1 30.8 µM | K562 36.1 µM | M14 45.6 µM | NCI-H226 42.7 µM | OVCAR-4 62.5 µM | SK-MEL-2 > 100 µM | SK-OV-3 > 100 µM | SNB-19 64.1 µM | SR 30 µM | SW-620 > 100 µM | TK-10 25.1 µM | UACC-62 > 100 µM

Nc1nc(-c2ccco2)cc(-c2ccc(CO)o2)n1
inactive: ACHN > 100 µM | EKVX > 100 µM | HT-29 > 100 µM | IGROV-1 > 100 µM | K562 > 100 µM | M14 > 100 µM | NCI-H226 54.3 µM | OVCAR-4 > 100 µM | SF-539 > 100 µM | SK-MEL-2 > 100 µM | SNB-19 65.5 µM | SR > 100 µM | SW-620 > 100 µM | TK-10 > 100 µM | UACC-62 > 100 µM

Cc1nc2c(o1)/C(=N\c1ccccc1)c1nc(C)oc1/C2=N/c1ccccc1
inactive: ACHN 17.9 µM | EKVX > 10 µM | HOP-92 24 µM | HT-29 20.4 µM | IGROV-1 4.73 µM | K562 33 µM | M14 36.4 µM | NCI-H226 21.4 µM | SF-539 14.1 µM | SK-MEL-2 26.8 µM | SK-OV-3 20.2 µM | SNB-19 21.2 µM | SR 60.5 µM | SW-620 34.4 µM | TK-10 32.7 µM | UACC-62 18.8 µM

COc1ccc(-c2cc(O)c3cc(OC)ccc3n2)cc1
inactive: ACHN > 100 µM | EKVX > 100 µM | HOP-92 > 100 µM | HT-29 > 100 µM | IGROV-1 > 100 µM | K562 > 100 µM | M14 > 100 µM | NCI-H226 > 100 µM | OVCAR-4 > 100 µM | SK-OV-3 > 100 µM | SNB-19 > 100 µM | SR > 100 µM | SW-620 > 100 µM | TK-10 > 100 µM | UACC-62 > 100 µM

[N-]=[N+]=NC(CCl)c1cn([C@H]2C[C@H](O)[C@@H](CO)O2)c(=O)[nH]c1=O (some centres undefined)
inactive: ACHN > 100 µM | CAKI-1 > 100 µM | EKVX > 100 µM | HOP-92 > 100 µM | HT-29 > 100 µM | IGROV-1 > 100 µM | K562 > 100 µM | M14 > 100 µM | NCI-H226 > 100 µM | SF-539 > 100 µM | SK-MEL-2 > 100 µM | SK-OV-3 > 100 µM | SNB-19 > 100 µM | SR > 100 µM | SW-620 > 100 µM | TK-10 > 100 µM | UACC-62 > 100 µM

O=C(CC1(O)C(=O)Nc2c(Cl)cc(Cl)cc21)c1cccc2ccccc12 (centres undefined)
inactive: ACHN 17.1 µM | CAKI-1 11.8 µM | EKVX 16 µM | HT-29 19.6 µM | IGROV-1 18.6 µM | K562 16.6 µM | M14 16.7 µM | NCI-H226 16.5 µM | OVCAR-4 12.4 µM | SF-539 17.1 µM | SK-MEL-2 17.7 µM | SK-OV-3 16.6 µM | SNB-19 14.1 µM | SR 16.9 µM | SW-620 16 µM | TK-10 14.1 µM | UACC-62 14.9 µM

CO[C@]12CCC(=O)N1C=Cc1c2[nH]c2ccccc12
inactive: ACHN > 100 µM | CAKI-1 > 100 µM | EKVX > 100 µM | HOP-92 > 100 µM | HT-29 > 100 µM | IGROV-1 > 100 µM | K562 > 100 µM | M14 > 100 µM | NCI-H226 > 100 µM | OVCAR-4 > 100 µM | SF-539 > 100 µM | SNB-19 > 100 µM | SR > 100 µM | SW-620 > 100 µM | TK-10 > 100 µM | UACC-62 > 100 µM

CCCn1c(SCCSc2c3ccccc3c(-c3nc(F)nc(F)n3)n2CCC)c2ccccc2c1-c1nc(F)nc(F)n1
inactive: ACHN 82.6 µM | CAKI-1 > 100 µM | EKVX > 100 µM | HOP-92 > 100 µM | HT-29 > 100 µM | K562 > 100 µM | M14 > 100 µM | OVCAR-4 > 100 µM | SF-539 38.6 µM | SK-MEL-2 > 100 µM | SK-OV-3 > 100 µM | SNB-19 > 100 µM | SR 27 µM | SW-620 13.8 µM | TK-10 > 100 µM | UACC-62 > 100 µM

Cn1c(=O)c2ccc(-c3ccc(Br)cc3)nc2n(C)c1=O
inactive: EKVX 42.9 µM | HOP-92 > 100 µM | HT-29 > 100 µM | IGROV-1 > 100 µM | K562 > 100 µM | M14 > 100 µM | NCI-H226 > 100 µM | OVCAR-4 > 100 µM | SF-539 > 100 µM | SK-MEL-2 > 100 µM | SK-OV-3 > 100 µM | SNB-19 > 100 µM | SR > 100 µM | SW-620 > 100 µM | TK-10 49.5 µM | UACC-62 > 100 µM

CC1CCc2c(sc3ncnc(N/N=C/c4ccc(Cl)c(Cl)c4)c23)C1 (centres undefined)
inactive: ACHN 5.38 µM | CAKI-1 26.2 µM | EKVX 25 µM | HT-29 13.6 µM | IGROV-1 37.2 µM | K562 4.4 µM | M14 14.3 µM | NCI-H226 16.4 µM | SF-539 21.7 µM | SK-MEL-2 10.3 µM | SK-OV-3 25.2 µM | SNB-19 17.5 µM | SR 4.83 µM | SW-620 6.07 µM | TK-10 23.7 µM | UACC-62 18.2 µM
